Our source for the IC50 values is patent US20230167127A1, “COMPOUNDS AND THEIR USE IN THE TREATMENT OF BACTERIAL INFECTION” (Hoffmann-La Roche Inc., priority 2020, published 2023).

Structures are written as SMILES.

The first test concerns Escherichia coli ATCC 25922. Kind of test: 50% growth inhibitory concentration (IC50) determination, Iso-Sensitest broth dilution. In kind it is cell-based. Conditions: Escherichia coli, ATCC25922, 16 h, strain Escherichia coli ATCC 25922; 10-point broth dilution, optical density at 600 nm over 16 h; read-out: Escherichia coli growth inhibition IC50. The method in brief: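 10-point twofold Iso-Sensitest broth dilution (e.g. 50 to 0.097 μM final) with DMSO stocks, incubated at 35±2° C. Growth followed by OD 600 nm every 20 min over 16 h; IC50 derived from growth inhibition during logarithmic phase.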
Regarding `NC1c2c(Cl)cccc2CC1CNCCC1CN(c2cnc3c(n2)NC(=O)CO3)C(=O)O1` (racemic) [Example 169, 6-[2-oxo-5-[2-[[rac-1,2-trans-1-amino-7-chloro-2,3-dihydro-1H-inden-2-yl]methylamino]ethyl]-1,3-oxazolidin-3-yl]-4H-pyrazino[2,3-b][1,4]oxazin-3-one], the IC50 is under 97.7 nM.

With `NC1(COc2cc(F)c3c(c2F)CC(CN2CCC4(CC2)CN(c2cnc5c(n2)NC(=O)CO5)C(=O)O4)C3)CC1` (stereo not shown) [Example 410, 6-[8-[[5-[(1-aminocyclopropyl)methoxy]-4,7-difluoro-2,3-dihydro-1H-inden-2-yl]methyl]-2-oxo-1-oxa-3,8-diazaspiro[4.5]decan-3-yl]-4H-pyrazino[2,3-b][1,4]oxazin-3-one; formic acid], the IC50 was under 97.7 nM.

Regarding `CC1(CCNCC2Cc3c(Cl)cccc3C2N)CN(c2cnc3c(n2)NC(=O)CO3)C(=O)O1` (racemic) [Example 375, 6-[5-methyl-2-oxo-5-[2-[(rac-1,2-trans-1-amino-4-chloro-2,3-dihydro-1H-inden-2-yl)methylamino]ethyl]-1,3-oxazolidin-3-yl]-4H-pyrazino[2,3-b][1,4]oxazin-3-one], the IC50 was 351 nM.

On to `N#Cc1cccc2c1CC(CNCCC1CN(c3ccc4c(n3)NC(=O)CS4)C(=O)O1)C2` (stereo not shown) [Example 64, 2-[[2-[2-oxo-3-(3-oxo-4H-pyrido[3,2-b][1,4]thiazin-6-yl)-1,3-oxazolidin-5-yl]ethylamino]methyl]-2,3-dihydro-1H-indene-4-carbonitrile], for which the IC50 is under 97.7 nM.

As to `NC1c2cccc(F)c2CC1CNCCC1CN(c2cnc3c(n2)NC(=O)CO3)C(=O)O1` (racemic) [Example 164, 6-[5-[2-[(rac-1,2-trans-1-amino-4-fluoro-2,3-dihydro-1H-inden-2-yl)methylamino]ethyl]-2-oxo-1,3-oxazolidin-3-yl]-4H-pyrazino[2,3-b][1,4]oxazin-3-one; formic acid], the IC50 is under 97.7 nM.

`O=C1COc2ccc(N3CC(CCNCC4Cc5cccc(Cl)c5C4)OC3=O)nc2N1` (single isomer, unassigned; isomer a) [Example 6, 6-[5-[2-[(4-chloro-2,3-dihydro-1H-inden-2-yl)methylamino]ethyl]-2-oxo-1,3-oxazolidin-3-yl]-4H-pyrido[3,2-b][1,4]oxazin-3-one, Isomer A]: the IC50 is under 97.7 nM.

Take `N#Cc1cccc2c1CC(CNCCc1nn(-c3ccc4c(c3)NC(=O)CO4)c(=O)o1)C2` (stereo not shown) [Example 42, 2-[[2-[5-oxo-4-(3-oxo-4H-1,4-benzoxazin-6-yl)-1,3,4-oxadiazol-2-yl]ethylamino]methyl]-2,3-dihydro-1H-indene-4-carbonitrile; formic acid]: the concentration for half-maximal inhibition (IC50) is 158 nM.

For `N#Cc1cccc2c1CC(CNCCC1CN(c3ccc4c(c3)NC(=O)CO4)C(=O)O1)C2` (stereo not shown) [Example 18, 2-[[2-[2-oxo-3-(3-oxo-4H-1,4-benzoxazin-6-yl)-1,3-oxazolidin-5-yl]ethylamino]methyl]-2,3-dihydro-1H-indene-4-carbonitrile; formic acid], the IC50 is under 97.7 nM.

Turning to `O=C1COc2ccc(N3CC(CCNCC4(O)Cc5cccc(Cl)c5C4)OC3=O)nc2N1` (stereo not shown) [Example 232, 6-[5-[2-[(4-Chloro-2-hydroxy-1,3-dihydroinden-2-yl)methylamino]ethyl]-2-oxo-1,3-oxazolidin-3-yl]-4H-pyrido[3,2-b][1,4]oxazin-3-one; formic acid], the concentration for half-maximal inhibition (IC50) stood at 495 nM.

With `N[C@H]1c2cccc(Cl)c2C[C@@H]1CNCC[C@@H]1CN(c2cnc3c(n2)NC(=O)CO3)C(=O)O1` [Example 403, 6-[(5R)-5-[2-[[(1R,2R)-1-amino-4-chloro-2,3-dihydro-1H-inden-2-yl]methylamino]ethyl]-2-oxo-1,3-oxazolidin-3-yl]-4H-pyrazino[2,3-b][1,4]oxazin-3-one], the IC50 was under 97.7 nM.

With `N#Cc1nccc2c1CC(NCCCC1CN(c3ccc4c(n3)NC(=O)CO4)C(=O)O1)C2` (stereo not shown) [Example 95, 6-[3-[2-oxo-3-(3-oxo-4H-pyrido[3,2-b][1,4]oxazin-6-yl)-1,3-oxazolidin-5-yl]propylamino]-6,7-dihydro-5H-cyclopenta[c]pyridine-1-carbonitrile], the concentration for half-maximal inhibition (IC50) amounted to 232 nM.

Regarding `NCCOc1ccc2c(c1Cl)CC(NCCCC1CN(c3ccc4c(n3)NC(=O)CO4)C(=O)O1)C2` (stereo not shown) [Example 118, 6-[5-[3-[[5-(2-aminoethoxy)-4-chloro-2,3-dihydro-1H-inden-2-yl]amino]propyl]-2-oxo-1,3-oxazolidin-3-yl]-4H-pyrido[3,2-b][1,4]oxazin-3-one; formic acid], the IC50 is under 97.7 nM.

In the case of `Cc1c(F)cnc2c1CC(CN1CCC3(CC1)CN(c1cnc4c(n1)NC(=O)CO4)C(=O)O3)C2` (stereo not shown) [Example 301, 6-[8-[(3-fluoro-4-methyl-6,7-dihydro-5H-cyclopenta[b]pyridin-6-yl)methyl]-2-oxo-1-oxa-3,8-diazaspiro[4.5]decan-3-yl]-4H-pyrazino[2,3-b][1,4]oxazin-3-one], the IC50 was under 97.7 nM.

For `O=C1COc2ccc(N3CC(CCNC4Cc5ccc(Cl)cc5C4)OC3=O)nc2N1` (stereo not shown) [Example 11, 6-[5-[2-[(5-chloro-2,3-dihydro-1H-inden-2-yl)amino]ethyl]-2-oxo-1,3-oxazolidin-3-yl]-4H-pyrido[3,2-b][1,4]oxazin-3-one], the 50% inhibitory concentration (IC50) was found to be 2400 nM.

In the case of `Cc1ncc(F)c2c1CC(N(C)CCCc1cn(-c3cnc4c(n3)NC(=O)CO4)c(=O)o1)C2` (stereo not shown) [Example 303, 6-[5-[3-[(4-Fluoro-1-methyl-6,7-dihydro-5H-cyclopenta[c]pyridin-6-yl)-methylamino]propyl]-2-oxo-1,3-oxazol-3-yl]-4H-pyrazino[2,3-b][1,4]oxazin-3-one; formic acid], the concentration for half-maximal inhibition (IC50) turned out to be 163 nM.

In the case of `NC1c2cccc(Cl)c2CC1CNC1CC2(C1)CN(c1ccc3c(n1)NC(=O)CO3)C(=O)O2` (racemic) [Example 210, 2,4-cis-6-[6-oxo-2-[[rac-1,2-trans-1-amino-4-chloro-2,3-dihydro-1H-inden-2-yl]methylamino]-5-oxa-7-azaspiro[3.4]octan-7-yl]-4H-pyrido[3,2-b][1,4]oxazin-3-one], the concentration for half-maximal inhibition (IC50) is 295 nM.

Take `O=C1COc2ncc(N3CC(CCNCC4Cc5cc(O)cc(F)c5C4)OC3=O)nc2N1` (stereo not shown) [Example 317, 6-[5-[2-[(4-Fluoro-6-hydroxy-2,3-dihydro-1H-inden-2-yl)methylamino]ethyl]-2-oxo-1,3-oxazolidin-3-yl]-4H-pyrazino[2,3-b][1,4]oxazin-3-one]: the IC50 was under 97.7 nM.

For the molecule `N#Cc1cccc2c1CC(CNCCC1CN(c3ccc4c(n3)NC(=O)CO4)C(=O)O1)C2O` (racemic) [Example 139, rac-1,2-trans-1-hydroxy-2-[[2-[2-oxo-3-(3-oxo-4H-pyrido[3,2-b][1,4]oxazin-6-yl)-1,3-oxazolidin-5-yl]ethylamino]methyl]-2,3-dihydro-1H-indene-4-carbonitrile], the 50% inhibitory concentration (IC50) came to 513 nM.

Turning to `Cc1c(OCC(=O)NC(C)C)nc(C#N)c2c1CC(CNCCC1CN(c3ccc4c(n3)NC(=O)CO4)C(=O)O1)C2` (stereo not shown) [Example 222, 2-((1-cyano-4-methyl-6-(((2-(2-oxo-3-(3-oxo-3,4-dihydro-2H-pyrido[3,2-b][1,4]oxazin-6-yl)oxazolidin-5-yl)ethyl)amino)methyl)-6,7-dihydro-5H-cyclopenta[c]pyridin-3-yl)oxy)-N-isopropylacetamide], the half-inhibitory concentration (IC50) was found to be 717 nM.

As for `N#Cc1cccc2c1CC(CN1CCC3(CC1)CN(c1ccc4c(n1)NC(=O)CO4)C(=O)O3)C2N` (racemic) [Example 131, rac-1,2-trans-1-amino-2-[[2-oxo-3-(3-oxo-4H-pyrido[3,2-b][1,4]oxazin-6-yl)-1-oxa-3,8-diazaspiro[4.5]decan-8-yl]methyl]-2,3-dihydro-1H-indene-4-carbonitrile; formic acid], the IC50 is 240 nM.

On to `NC1c2cccc(Cl)c2CC1CNCCC1CN(c2ccc3c(n2)NC(=O)CO3)C(=O)O1` (single isomer, unassigned; isomer a) [Example 207, 6-[2-Oxo-5-[2-[[1,2-trans-1-amino-4-chloro-2,3-dihydro-1H-inden-2-yl]methylamino]ethyl]-1,3-oxazolidin-3-yl]-4H-pyrido[3,2-b][1,4]oxazin-3-one, Isomer A], for which the half-maximal inhibitory concentration (IC50) was under 97.7 nM.

With `NC1CC(NCC2Cc3ccnc(Cl)c3C2)CCC12CN(c1ccc3c(n1)NC(=O)CO3)C(=O)O2` (racemic) [Example 206, 6-[rac-5,6-cis-5,8-trans-6-amino-8-[(1-chloro-6,7-dihydro-5H-cyclopenta[c]pyridin-6-yl)methylamino]-2-oxo-1-oxa-3-azaspiro[4.5]decan-3-yl]-4H-pyrido[3,2-b][1,4]oxazin-3-one], the 50% inhibitory concentration (IC50) came to 1160 nM.

Turning to `CNC(=O)COc1cc(F)c2c(c1)CC(CNCCC1CN(c3ccc4c(n3)NC(=O)CS4)C(=O)O1)C2` (stereo not shown) [Example 74, 2-[[7-fluoro-2-[[2-[2-oxo-3-(3-oxo-4H-pyrido[3,2-b][1,4]thiazin-6-yl)-1,3-oxazolidin-5-yl]ethylamino]methyl]-2,3-dihydro-1H-inden-5-yl]oxy]-N-methylacetamide: formic acid], the IC50 was 118 nM.

For the molecule `N#Cc1nccc2c1CC(CNCCC1CN(c3ccc4c(n3)NC(=O)CO4)C(=O)O1)C2N` (racemic) [Example 133, rac-5,6-trans-5-amino-6-[[2-[2-oxo-3-(3-oxo-4H-pyrido[3,2-b][1,4]oxazin-6-yl)-1,3-oxazolidin-5-yl]ethylamino]methyl]-6,7-dihydro-5H-cyclopenta[c]pyridine-1-carbonitrile; formic acid], the IC50 came out at 1380 nM.

The same test, now with this note: strain Escherichia coli ATCC 25922; 10-point broth dilution, optical density at 600 nm over 16 h; read-out: Escherichia coli growth inhibition IC50.
For `N#Cc1cccc2c1CC(NC1CCC3(CN(c4ccc5c(n4)NC(=O)CO5)C(=O)O3)C(N)C1)C2` (racemic) [Example 166, 2-[[rac-5,6-cis-5,8-trans-6-amino-2-oxo-3-(3-oxo-4H-pyrido[3,2-b][1,4]oxazin-6-yl)-1-oxa-3-azaspiro[4.5]decan-8-yl]amino]-2,3-dihydro-1H-indene-4-carbonitrile], the IC50 worked out at 172 nM.
